Results: article PMC9879287 (Current research in chemical biology, 2022)

Assays:
[1] = molecular target: BTK-nLuc fusion protein (Homo sapiens, UniProt Q06187+Q96SW2); experiment: BTK-nLuc endpoint degradation assay; assay type: cell-based; settings: HEK-293T cells stably expressing BTK-nLuc, 24 h
[2] = molecular target: BTK (Homo sapiens, UniProt Q06187); experiment: Western blotting for BTK in Mino cells; assay type: cell-based; settings: 24 h; for BTK degradation in Mino cells: Western blotting
[3] = molecular target: His-BTK (Homo sapiens, UniProt Q06187); experiment: TR-FRET competition binding assay with BTK-BODIPY tracer; settings: 2 h incubation, 150 nM tracer, 2 nM His-BTK
[4] = tested on: MOLM14 cells; experiment: Alarma Blue cell viability assay, MOLM14; assay type: cell-based; settings: Homo sapiens, MOLM-14, 72 h, read-out: MOLM14 IC50
[5] = molecular target: IKZF1 (Homo sapiens, UniProt Q13422+Q96SW2); experiment: Western blotting for IKZF1 in Mino cells; assay type: cell-based; settings: at 200 nM; assay not given
[6] = molecular target: IKZF3 (Homo sapiens, UniProt Q96SW2+Q9UKT9); experiment: Western blotting for IKZF3 in Mino cells; assay type: cell-based; settings: at 40 nM; assay not given
[7] = molecular target: T1, IKZF3-nLuc (Homo sapiens, UniProt Q96SW2+Q9UKT9); settings: other cell line
[8] = molecular target: IKZF1-nLuc (Homo sapiens, UniProt Q13422+Q96SW2); settings: other cell line
[9] = tested on: Mino cells; experiment: cells; assay type: cell-based; settings: Homo sapiens, read-out: Mino IC50
[10] = tested on: Rec-R cells; experiment: Alarma Blue cell viability assay, Rec-R; assay type: cell-based
[11] = tested on: Jeko-1 cells; experiment: Alarma Blue cell viability assay, Jeko-1; assay type: cell-based
[12] = molecular target: T1, IKZF3-nLuc; assay type: cell-based

Chain of BTK (Q06187 whole entry): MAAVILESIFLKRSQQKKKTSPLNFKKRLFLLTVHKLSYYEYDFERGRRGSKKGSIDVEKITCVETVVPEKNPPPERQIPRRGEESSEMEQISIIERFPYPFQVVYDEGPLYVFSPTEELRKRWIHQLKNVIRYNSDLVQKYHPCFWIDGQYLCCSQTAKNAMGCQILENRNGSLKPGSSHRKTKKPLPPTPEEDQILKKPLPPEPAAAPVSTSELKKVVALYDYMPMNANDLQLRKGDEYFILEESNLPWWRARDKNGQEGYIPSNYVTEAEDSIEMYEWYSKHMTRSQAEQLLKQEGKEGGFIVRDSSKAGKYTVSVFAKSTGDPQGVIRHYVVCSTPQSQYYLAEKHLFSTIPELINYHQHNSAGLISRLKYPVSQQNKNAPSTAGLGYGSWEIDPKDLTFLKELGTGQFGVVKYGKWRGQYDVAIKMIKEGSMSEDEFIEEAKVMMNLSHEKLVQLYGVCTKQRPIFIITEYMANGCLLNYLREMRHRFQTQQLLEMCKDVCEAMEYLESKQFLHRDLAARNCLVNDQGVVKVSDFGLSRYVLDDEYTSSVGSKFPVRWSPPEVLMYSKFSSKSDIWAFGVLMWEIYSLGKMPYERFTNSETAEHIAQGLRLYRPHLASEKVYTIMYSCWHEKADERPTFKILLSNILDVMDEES
Chain of IKZF3 (Q9UKT9 whole entry): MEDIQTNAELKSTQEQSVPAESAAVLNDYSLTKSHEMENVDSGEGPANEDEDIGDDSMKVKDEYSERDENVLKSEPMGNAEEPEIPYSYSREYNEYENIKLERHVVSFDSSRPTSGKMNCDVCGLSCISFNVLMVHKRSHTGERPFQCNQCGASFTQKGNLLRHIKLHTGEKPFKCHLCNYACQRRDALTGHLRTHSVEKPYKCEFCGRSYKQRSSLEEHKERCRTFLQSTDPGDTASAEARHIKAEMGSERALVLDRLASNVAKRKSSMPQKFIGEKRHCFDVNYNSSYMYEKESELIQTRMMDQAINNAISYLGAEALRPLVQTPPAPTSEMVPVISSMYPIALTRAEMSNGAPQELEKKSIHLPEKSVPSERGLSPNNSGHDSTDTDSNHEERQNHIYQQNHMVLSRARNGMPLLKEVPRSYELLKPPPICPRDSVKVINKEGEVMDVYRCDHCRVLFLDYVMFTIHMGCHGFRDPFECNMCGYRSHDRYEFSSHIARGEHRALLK
Chain of IKZF3 (Q96SW2 whole entry): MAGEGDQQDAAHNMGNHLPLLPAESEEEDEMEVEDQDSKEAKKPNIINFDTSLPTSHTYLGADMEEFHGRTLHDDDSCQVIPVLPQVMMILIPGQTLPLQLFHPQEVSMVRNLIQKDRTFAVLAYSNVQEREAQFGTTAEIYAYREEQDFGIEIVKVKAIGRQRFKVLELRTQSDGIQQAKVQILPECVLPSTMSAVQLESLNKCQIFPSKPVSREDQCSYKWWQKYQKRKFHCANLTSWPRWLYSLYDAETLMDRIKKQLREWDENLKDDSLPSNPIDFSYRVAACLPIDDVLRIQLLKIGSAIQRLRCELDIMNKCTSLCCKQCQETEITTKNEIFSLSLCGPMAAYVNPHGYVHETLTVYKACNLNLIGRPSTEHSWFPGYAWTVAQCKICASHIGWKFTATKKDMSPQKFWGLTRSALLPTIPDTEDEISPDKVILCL
Chain of IKZF3 (Q16531 whole entry partner): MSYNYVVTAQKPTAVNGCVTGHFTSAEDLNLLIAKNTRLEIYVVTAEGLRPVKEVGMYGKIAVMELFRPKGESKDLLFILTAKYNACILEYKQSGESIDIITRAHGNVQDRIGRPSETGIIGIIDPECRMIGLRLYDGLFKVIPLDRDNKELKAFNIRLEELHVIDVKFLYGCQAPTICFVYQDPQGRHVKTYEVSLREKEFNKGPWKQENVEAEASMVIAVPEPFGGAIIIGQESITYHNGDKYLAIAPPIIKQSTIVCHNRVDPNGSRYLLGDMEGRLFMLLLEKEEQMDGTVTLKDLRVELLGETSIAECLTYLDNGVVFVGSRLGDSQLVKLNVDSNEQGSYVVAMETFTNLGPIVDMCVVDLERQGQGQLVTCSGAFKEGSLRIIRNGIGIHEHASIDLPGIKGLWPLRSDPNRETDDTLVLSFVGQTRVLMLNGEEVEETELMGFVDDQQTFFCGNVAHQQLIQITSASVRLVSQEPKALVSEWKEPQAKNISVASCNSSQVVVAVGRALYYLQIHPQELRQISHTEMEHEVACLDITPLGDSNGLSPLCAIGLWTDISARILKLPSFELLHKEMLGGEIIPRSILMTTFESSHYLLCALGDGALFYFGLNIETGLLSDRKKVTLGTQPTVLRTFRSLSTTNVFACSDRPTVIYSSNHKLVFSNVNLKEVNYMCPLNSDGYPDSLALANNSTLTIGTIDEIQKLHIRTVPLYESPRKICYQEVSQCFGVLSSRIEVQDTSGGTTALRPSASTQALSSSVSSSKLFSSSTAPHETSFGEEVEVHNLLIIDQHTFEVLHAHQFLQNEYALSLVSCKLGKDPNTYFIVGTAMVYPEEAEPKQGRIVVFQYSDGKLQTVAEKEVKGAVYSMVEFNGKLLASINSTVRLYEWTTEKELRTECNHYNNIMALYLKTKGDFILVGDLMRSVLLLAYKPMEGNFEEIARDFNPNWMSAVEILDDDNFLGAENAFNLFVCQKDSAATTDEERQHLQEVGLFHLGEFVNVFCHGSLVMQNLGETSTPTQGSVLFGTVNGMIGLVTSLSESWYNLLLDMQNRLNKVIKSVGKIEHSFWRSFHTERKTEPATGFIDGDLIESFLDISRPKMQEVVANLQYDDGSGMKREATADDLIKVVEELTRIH
T1 sequence (Q9UKT9 whole entry): as the sequence (Q9UKT9 whole entry) above
T1 sequence (Q96SW2 whole entry): as the sequence (Q96SW2 whole entry) above
T1 sequence (Q16531 whole entry partner): as the sequence (Q16531 whole entry partner) above
Chain of IKZF1 (Q13422 whole entry): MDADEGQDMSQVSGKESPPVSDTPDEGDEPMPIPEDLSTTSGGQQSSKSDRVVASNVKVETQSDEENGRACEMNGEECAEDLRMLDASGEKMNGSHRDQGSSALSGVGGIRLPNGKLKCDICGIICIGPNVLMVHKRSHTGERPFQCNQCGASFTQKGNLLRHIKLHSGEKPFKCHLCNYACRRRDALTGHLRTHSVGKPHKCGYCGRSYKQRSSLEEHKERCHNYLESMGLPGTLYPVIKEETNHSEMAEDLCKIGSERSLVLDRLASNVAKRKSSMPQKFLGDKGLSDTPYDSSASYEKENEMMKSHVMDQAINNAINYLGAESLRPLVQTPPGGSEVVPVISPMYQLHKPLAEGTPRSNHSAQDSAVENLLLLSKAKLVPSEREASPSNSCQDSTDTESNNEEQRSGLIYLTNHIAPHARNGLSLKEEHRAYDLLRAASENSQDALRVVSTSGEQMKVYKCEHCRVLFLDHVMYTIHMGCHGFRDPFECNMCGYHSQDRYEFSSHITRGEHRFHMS
Chain of IKZF1 (Q96SW2 whole entry): as the sequence (Q96SW2 whole entry) above
Chain of IKZF1 (Q16531 whole entry partner): as the sequence (Q16531 whole entry partner) above
Chain of BTK-nLuc fusion protein (Q06187 whole entry, the tested form may be a part): as the sequence (Q06187 whole entry) above
Chain of BTK-nLuc fusion protein (Q96SW2 whole entry, the tested form may be a part): as the sequence (Q96SW2 whole entry) above
Chain of BTK-nLuc fusion protein (Q16531 whole entry partner, the tested form may be a part): as the sequence (Q16531 whole entry partner) above
Chain of IKZF1-nLuc (Q13422 whole entry): as the sequence (Q13422 whole entry) above
Chain of IKZF1-nLuc (Q96SW2 whole entry): as the sequence (Q96SW2 whole entry) above
Chain of IKZF1-nLuc (Q16531 whole entry partner): as the sequence (Q16531 whole entry partner) above
Chain of His-BTK (Q06187 whole entry): as the sequence (Q06187 whole entry) above

## Cc1c(NC(=O)c2ccc(C(C)(C)C)cc2)cccc1-c1cn(C)c(=O)c(Nc2ccc(C(=O)N3CCN(CCCCCCNC(=O)CNc4cccc5c4C(=O)N(C4CCC(=O)NC4=O)C5=O)CC3)cc2)n1 (centres unmarked) [DD-03-171]
[1]
  BTK-nLuc Dmax: 96%
[1]; read-out: BTK-nLuc DC50
  DC50: 25.9 nM
[2]; Mino cells
  BTK WB Dmax: 99%
[2]
  BTK degradation in Mino cells: potently induces BTK degradation

## C=CC(=O)Nc1cccc(Oc2nc(Nc3ccc(N4CCN(C)CC4)cc3)nc3ccoc23)c1 [Poseltinib, poseltinib]
[3]
  IC50: 1.21 nM
[4]
  IC50: 2900 nM

## O=C1CC[C@H](N2Cc3c(OCc4ccc(CN5CCOCC5)cc4)cccc3C2=O)C(=O)N1 [CC220]
[2]
  BTK degradation in Mino cells: In contrast to PS-1, PS-3 and CC-220, PS-2 potently induces BTK degradation

## Nc1ccc(N2CCN(C(=O)CNc3cccc4c3C(=O)N(C3CCC(=O)NC3=O)C4=O)CC2)cc1 (centres unmarked) [PS-4]
[5]
  IKZF1 degradation: substantial IKZF1 degradation
[6]
  IKZF3 degradation: do not degrade IKZF3

## Nc1cccc2c1C(=O)N(C1CCC(=O)NC1=O)C2=O (centres unmarked) [Pomalidomide, pomalidomide]
[7]
  IKZF3 degradation half-life: 1.9 h
[8]
  IKZF1 degradation half-life: 4.9 h
[9]
  IC50: 329 nM
[10]
  response of Rec-R cells: only Mino cells are responsive
[11]
  response of Jeko-1 cells: only Mino cells are responsive

## CN1CCN(C(=O)CNc2cccc3c2C(=O)N(C2CCC(=O)NC2=O)C3=O)CC1 (centres unmarked) [PS-5]
[12]
  IKZF3 degradation in the nLuc assay: appear to be potent IKZF3 degraders
[5]
  IKZF1 degradation: less potent
[6]
  IKZF3 degradation: do not degrade IKZF3
